Reference: patent publication US5763404A, “Methods for using LHRH antagonists with low histamine release” (priority 1995, dated 1998)
Starred links: 1 amine or outer side, 2 acyl side, 3 side chain; linkers in the order of their positions; H or OH if unused. Non-standard residues stand in square brackets, D forms with d. Residues, ends and D or L forms follow the SMILES beside them. *: point of attachment. dAla(cis-4-NHCOPyz-cHex) = N[C@H](C[C@H]1CC[C@@H](NC(=O)c2cnccn2)CC1)C(=O)O; X8 = O=C(N[C@H]1CC[C@@H](C[C@@H](N[*:1])C(=O)[*:2])CC1)c1ccncn1; X2 = O=C(N[C@H]1CC[C@@H](C[C@H](N[*:1])C(=O)[*:2])CC1)c1cnccn1; X3 = O=C(N[C@H]1CC[C@H](C[C@@H](N[*:1])C(=O)[*:2])CC1)c1cnccn1; X7 = O=C(N[C@H]1CC[C@H](C[C@@H](N[*:1])C(=O)[*:2])CC1)c1cccnc1; X5 = O=C([C@H](CCCCNC1CCCC1)N[*:1])[*:2]; dPhe(4-Cl) = N[C@H](Cc1ccc(Cl)cc1)C(=O)O; d2Nal = N[C@H](Cc1ccc2ccccc2c1)C(=O)O; dLys(iPr) = CC(C)NCCCC[C@@H](N)C(=O)O; X11 = O=C([C@H](N[*:1])c1ccsc1)[*:2]; Lys(iPr) = CC(C)NCCCC[C@H](N)C(=O)O; Orn(iPr) = CC(C)NCCC[C@H](N)C(=O)O; aIle = CC[C@@H](C)[C@H](N)C(=O)O; d3Pal = N[C@H](Cc1cccnc1)C(=O)O; Nicotinoyl = O=C(c1cccnc1)*; Picolinoyl = O=C(c1ccccn1)*; Nva = CCC[C@H](N)C(=O)O; Me2Gly = CN(C)CC(=O)*

tested on: anaesthesized rats; experiment: wheal test, intradermal injection; assay type: in vivo, rat; design: Wheal (wheal response): unit not given here; details: 10 ug peptide intradermally
Summary of the method: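 Anaesthetized rats given intradermal injection of 10 ug peptide in 100 ul saline; area of the wheal calculated from its diameter.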

SMILES	Wheal Area [mm^2 /10 μg]
CC[C@@H](C)[C@H](NC(=O)[C@@H](CCCCNC(=O)c1ccccn1)NC(=O)[C@H](CCCCNC(=O)c1ccccn1)NC(=O)[C@H](CO)NC(=O)[C@@H](Cc1cccnc1)NC(=O)[C@@H](Cc1ccc(Cl)cc1)NC(=O)[C@@H](Cc1ccc2ccccc2c1)NC(C)=O)C(=O)N[C@@H](CCCCNC(C)C)C(=O)N1CCC[C@H]1C(=O)N[C@H](C)C(N)=O [compound 25936] (Ac-[d2Nal][dPhe(4-Cl)][d3Pal]SK(Picolinoyl)[dK](Picolinoyl)[aIle][Lys(iPr)]P[dA]-NH2)	97.9 ± 2.9
CC(=O)N[C@H](Cc1ccc2ccccc2c1)C(=O)N[C@H](Cc1ccc(Cl)cc1)C(=O)N[C@H](Cc1cccnc1)C(=O)N[C@@H](CO)C(=O)N[C@@H](CCCCNC(=O)c1cccnc1)C(=O)N[C@H](C[C@H]1CC[C@H](NC(=O)c2cnccn2)CC1)C(=O)N[C@@H](CC(C)C)C(=O)N[C@@H](CCCCNC(C)C)C(=O)N1CCC[C@H]1C(=O)N[C@H](C)C(N)=O [compound 25805] (Ac-[d2Nal][dPhe(4-Cl)][d3Pal]SK(Nicotinoyl)[X3]L[Lys(iPr)]P[dA]-NH2)	129.6 ± 8.8
CC(=O)N[C@H](Cc1ccc2ccccc2c1)C(=O)N[C@H](Cc1ccc(Cl)cc1)C(=O)N[C@@H](C(=O)N[C@@H](CO)C(=O)N[C@@H](CCCCNC(=O)c1ccccn1)C(=O)N[C@H](C[C@H]1CC[C@@H](NC(=O)c2cnccn2)CC1)C(=O)N[C@@H](CC(C)C)C(=O)N[C@@H](CCCCNC(C)C)C(=O)N1CCC[C@H]1C(=O)N[C@H](C)C(N)=O)c1ccsc1 [compound 26349] (Ac-[d2Nal][dPhe(4-Cl)][X11]SK(Picolinoyl)[dAla(cis-4-NHCOPyz-cHex)]L[Lys(iPr)]P[dA]-NH2)	84.6 ± 3.9
CC(=O)N[C@H](Cc1ccc2ccccc2c1)C(=O)N[C@H](Cc1ccc(Cl)cc1)C(=O)N[C@H](Cc1cccnc1)C(=O)N[C@@H](CO)C(=O)N[C@@H](C[C@H]1CC[C@@H](NC(=O)c2cnccn2)CC1)C(=O)N[C@H](C[C@H]1CC[C@@H](NC(=O)c2cnccn2)CC1)C(=O)N[C@@H](CC(C)C)C(=O)N[C@@H](CCCCNC(C)C)C(=O)N1CCC[C@H]1C(=O)N[C@H](C)C(N)=O [compound 26326] (Ac-[d2Nal][dPhe(4-Cl)][d3Pal]S[X2][dAla(cis-4-NHCOPyz-cHex)]L[Lys(iPr)]P[dA]-NH2)	115.5 ± 2.4
CC(=O)N[C@H](Cc1ccc2ccccc2c1)C(=O)N[C@H](Cc1ccc(Cl)cc1)C(=O)N[C@H](Cc1cccnc1)C(=O)N[C@@H](CO)C(=O)N[C@@H](Cc1ccc(O)cc1)C(=O)N[C@H](C[C@H]1CC[C@@H](NC(=O)c2cnccn2)CC1)C(=O)N[C@@H](CC(C)C)C(=O)N[C@@H](CCCCNC(C)C)C(=O)N1CCC[C@H]1C(=O)N[C@H](C)C(N)=O [compound 26418] (Ac-[d2Nal][dPhe(4-Cl)][d3Pal]SY[dAla(cis-4-NHCOPyz-cHex)]L[Lys(iPr)]P[dA]-NH2)	95.0 ± 0
CC(=O)N[C@H](Cc1ccc2ccccc2c1)C(=O)N[C@H](Cc1ccc(Cl)cc1)C(=O)N[C@H](Cc1cccnc1)C(=O)N[C@@H](CO)C(=O)N[C@@H](CCCCNC(=O)c1ccccn1)C(=O)N[C@H](CCCCNC(=O)c1ccccn1)C(=O)N[C@H](C(=O)N[C@@H](CCCCNC(C)C)C(=O)N1CCC[C@H]1C(=O)N[C@H](C)C(N)=O)C(C)C [compound 25934] (Ac-[d2Nal][dPhe(4-Cl)][d3Pal]SK(Picolinoyl)[dK](Picolinoyl)V[Lys(iPr)]P[dA]-NH2)	97.9 ± 2.9
CCC[C@H](NC(=O)[C@@H](CCCCNC(=O)c1ccccn1)NC(=O)[C@H](CCCCNC(=O)c1ccccn1)NC(=O)[C@H](CO)NC(=O)[C@@H](Cc1cccnc1)NC(=O)[C@@H](Cc1ccc(Cl)cc1)NC(=O)[C@@H](Cc1ccc2ccccc2c1)NC(C)=O)C(=O)N[C@@H](CCCCNC(C)C)C(=O)N1CCC[C@H]1C(=O)N[C@H](C)C(N)=O [compound 25989] (Ac-[d2Nal][dPhe(4-Cl)][d3Pal]SK(Picolinoyl)[dK](Picolinoyl)[Nva][Lys(iPr)]P[dA]-NH2)	95.3 ± 6.0
CC(=O)N[C@H](Cc1ccc2ccccc2c1)C(=O)N[C@H](Cc1ccc(Cl)cc1)C(=O)N[C@H](Cc1cccnc1)C(=O)N[C@@H](CO)C(=O)N[C@@H](CCCCNC(=O)c1ccccn1)C(=O)N[C@H](C[C@H]1CC[C@@H](NC(=O)c2ccncn2)CC1)C(=O)N[C@@H](CC(C)C)C(=O)N[C@@H](CCCCNC(C)C)C(=O)N1CCC[C@H]1C(=O)N[C@H](C)C(N)=O [compound 26323] (Ac-[d2Nal][dPhe(4-Cl)][d3Pal]SK(Picolinoyl)[X8]L[Lys(iPr)]P[dA]-NH2)	120.4 ± 4.7
CC(=O)N[C@H](Cc1ccc2ccccc2c1)C(=O)N[C@H](Cc1ccc(Cl)cc1)C(=O)N[C@H](Cc1cccnc1)C(=O)N[C@@H](CO)C(=O)N[C@@H](Cc1ccc(O)cc1)C(=O)N[C@H](C[C@H]1CC[C@@H](NC(=O)c2cnccn2)CC1)C(=O)N[C@@H](CC(C)C)C(=O)N[C@@H](CCCCNC(C)C)C(=O)N1CCC[C@H]1C(=O)N[C@H](CO)C(N)=O [compound 26365] (Ac-[d2Nal][dPhe(4-Cl)][d3Pal]SY[dAla(cis-4-NHCOPyz-cHex)]L[Lys(iPr)]P[dS]-NH2)	129.4 ± 3.3

same assay, conditions: Table I; 10 ug peptide intradermally

SMILES	Wheal [mm^2 /10]
CC(=O)N[C@H](Cc1ccc2ccccc2c1)C(=O)N[C@H](Cc1ccc(Cl)cc1)C(=O)N[C@H](Cc1cccnc1)C(=O)N[C@@H](CO)C(=O)N[C@@H](Cc1ccc(O)cc1)C(=O)N[C@H](CCCCNC(=O)c1cccnc1)C(=O)N[C@@H](CC(C)C)C(=O)N[C@@H](CCCCNC(=O)c1cccnc1)C(=O)N1CCC[C@H]1C(=O)N[C@H](C)C(N)=O [compound 24540] (Ac-[d2Nal][dPhe(4-Cl)][d3Pal]SY[dK](Nicotinoyl)LK(Nicotinoyl)P[dA]-NH2)	82.6 ± 2.8
CC(=O)N[C@H](Cc1ccc2ccccc2c1)C(=O)N[C@H](Cc1ccc(Cl)cc1)C(=O)N[C@H](Cc1cccnc1)C(=O)N[C@@H](CO)C(=O)N[C@@H](CCCCNC(=O)CN(C)C)C(=O)N[C@H](CCCCNC(=O)c1cccnc1)C(=O)N[C@@H](CC(C)C)C(=O)N[C@@H](CCCCNC(C)C)C(=O)N1CCC[C@H]1C(=O)N[C@H](C)C(N)=O [compound 25509] (Ac-[d2Nal][dPhe(4-Cl)][d3Pal]SK(Me2Gly)[dK](Nicotinoyl)L[Lys(iPr)]P[dA]-NH2)	110 ± 3
CC(=O)N[C@H](Cc1ccc2ccccc2c1)C(=O)N[C@H](Cc1ccc(Cl)cc1)C(=O)N[C@H](Cc1cccnc1)C(=O)N[C@@H](CO)C(=O)N[C@@H](CCCCNC(=O)c1cccnc1)C(=O)N[C@H](CCCCNC(=O)c1cccnc1)C(=O)N[C@@H](CC(C)C)C(=O)N[C@@H](CCCCNC1CCCC1)C(=O)N1CCC[C@H]1C(=O)N[C@H](C)C(N)=O [compound 25078] (Ac-[d2Nal][dPhe(4-Cl)][d3Pal]SK(Nicotinoyl)[dK](Nicotinoyl)L[X5]P[dA]-NH2)	147.0
CC(=O)N[C@H](Cc1ccc2ccccc2c1)C(=O)N[C@H](Cc1ccc(Cl)cc1)C(=O)N[C@H](Cc1cccnc1)C(=O)N[C@@H](CO)C(=O)N[C@@H](CCCCNC(=O)c1cccnc1)C(=O)N[C@H](C[C@H]1CC[C@H](NC(=O)c2cccnc2)CC1)C(=O)N[C@@H](CC(C)C)C(=O)N[C@@H](CCCCNC(C)C)C(=O)N1CCC[C@H]1C(=O)N[C@H](C)C(N)=O [compound 25647] (Ac-[d2Nal][dPhe(4-Cl)][d3Pal]SK(Nicotinoyl)[X7]L[Lys(iPr)]P[dA]-NH2)	119.5 ± 3.2
CC(=O)N[C@H](Cc1ccc2ccccc2c1)C(=O)N[C@H](Cc1ccc(Cl)cc1)C(=O)N[C@H](Cc1cccnc1)C(=O)N[C@@H](CO)C(=O)N[C@@H](Cc1ccc(O)cc1)C(=O)N[C@H](CCCCNC(C)C)C(=O)N[C@@H](CC(C)C)C(=O)N[C@@H](CCCCNC(=O)c1cccnc1)C(=O)N1CCC[C@H]1C(=O)N[C@H](C)C(N)=O [compound 24824] (Ac-[d2Nal][dPhe(4-Cl)][d3Pal]SY[dLys(iPr)]LK(Nicotinoyl)P[dA]-NH2)	122.8 ± 5.8
CC(=O)N[C@H](Cc1ccc(Cl)cc1)C(=O)N[C@H](Cc1ccc(Cl)cc1)C(=O)N[C@H](Cc1cccnc1)C(=O)N[C@@H](CO)C(=O)N[C@@H](Cc1ccc(O)cc1)C(=O)N[C@H](CCCCNC(=O)c1cccnc1)C(=O)N[C@@H](CC(C)C)C(=O)N[C@@H](CCCCNC(C)C)C(=O)N1CCC[C@H]1C(=O)N[C@H](C)C(N)=O [compound 25337] (Ac-[dPhe(4-Cl)][dPhe(4-Cl)][d3Pal]SY[dK](Nicotinoyl)L[Lys(iPr)]P[dA]-NH2)	139.9
CC(=O)N[C@H](Cc1ccc2ccccc2c1)C(=O)N[C@H](Cc1ccc(Cl)cc1)C(=O)N[C@H](Cc1cccnc1)C(=O)N[C@@H](CO)C(=O)N[C@@H](CCCNC(=N)N)C(=O)N[C@H](Cc1cccnc1)C(=O)N[C@@H](CC(C)C)C(=O)N[C@@H](CCCCNC(=O)c1cccnc1)C(=O)N1CCC[C@H]1C(=O)N[C@H](C)C(N)=O [compound 24771] (Ac-[d2Nal][dPhe(4-Cl)][d3Pal]SR[d3Pal]LK(Nicotinoyl)P[dA]-NH2)	99.0 ± 10.3
CC(=O)N[C@H](Cc1ccc2ccccc2c1)C(=O)N[C@H](Cc1ccc(Cl)cc1)C(=O)N[C@H](Cc1cccnc1)C(=O)N[C@@H](CO)C(=O)N[C@@H](Cc1c[nH]cn1)C(=O)N[C@H](CCCCNC(=O)c1cccnc1)C(=O)N[C@@H](CC(C)C)C(=O)N[C@@H](CCCNC(=N)N)C(=O)N1CCC[C@H]1C(=O)N[C@H](C)C(N)=O [compound 24545] (Ac-[d2Nal][dPhe(4-Cl)][d3Pal]SH[dK](Nicotinoyl)LRP[dA]-NH2)	139.7 ± 0

same assay, conditions: Table XIV and text, unit not given

SMILES	Wheal (wheal response)
CC(=O)N[C@H](Cc1ccc2ccccc2c1)C(=O)N[C@H](Cc1ccc(Cl)cc1)C(=O)N[C@H](Cc1cccnc1)C(=O)N[C@@H](CO)C(=O)N[C@@H](C[C@H]1CC[C@@H](NC(=O)c2cnccn2)CC1)C(=O)N[C@H](C[C@H]1CC[C@@H](NC(=O)c2cnccn2)CC1)C(=O)N[C@@H](CC(C)C)C(=O)N[C@@H](CCCCNC(C)C)C(=O)N1CCC[C@H]1C(=O)N[C@H](C)C(N)=O [compound 26326] (Ac-[d2Nal][dPhe(4-Cl)][d3Pal]S[X2][dAla(cis-4-NHCOPyz-cHex)]L[Lys(iPr)]P[dA]-NH2)	115.5 ± 2.4
CC(=O)N[C@H](Cc1ccc2ccccc2c1)C(=O)N[C@H](Cc1ccc(Cl)cc1)C(=O)N[C@H](Cc1cccnc1)C(=O)N[C@@H](CO)C(=O)N[C@@H](CCCCNC(=O)c1ccccn1)C(=O)N[C@H](C[C@H]1CC[C@@H](NC(=O)c2cnccn2)CC1)C(=O)N[C@@H](CC(C)C)C(=O)N[C@@H](CCCNC(C)C)C(=O)N1CCC[C@H]1C(=O)N[C@H](C)C(N)=O [compound 26181] (Ac-[d2Nal][dPhe(4-Cl)][d3Pal]SK(Picolinoyl)[dAla(cis-4-NHCOPyz-cHex)]L[Orn(iPr)]P[dA]-NH2)	101.6 ± 2.2
